In brackets after ≈: the same amount, converted by molar mass. Like-named read-outs stand apart in the source and are kept apart here.
How the values were obtained:
B. fragilis NCTC 9344 = test: MIC/MBC against Bacteroides fragilis strain C; assay type: cell-based; details: for MBC: NCTC9344, 99.9% reduction in viable count; for MIC: NCTC9344, 48 h, 48 hours, 37° C., anaerobic
Experimental: The screening panel utilized in this Example consisted of 5 strains of Bacteroides fragilis. All assays were carried out in 96-well microtitre plates. If an isolate was obtained from either a culture collection or clinical source, the isolate was immediately inoculated into Wilkens-Chalgren broth (Oxoid) and incubated at 37° C. in an anaerobic chamber in an atmosphere of 85% nitrogen, 10% carbon dioxide, and 5% hydrogen for 48 hours. At the end of this time, the viable count was about 10^12 organisms/ml broth. A 1 ml aliquot of each culture was placed in an ampoule and quick frozen in acetone-dry ice mixture and stored in liquid nitrogen. When an inoculum was utilized in an assay, one of the ampoules was thawed and diluted with fresh broth to yield a suspension having a count of 5×10^5 organisms/ml. A 100 μl aliquot of this suspension was inoculated into each well of the microtitre plate. A 2 mg sample of the test compound was dissolved in 0.2 ml of a suitable solvent such as dimethylsulfoxide, polyethylene glycol 200 or methanol. […] After addition of the test solution the final inoculum level was 10^5 cells/ml. The plates were incubated for 48 hours at 37° C. in the anaerobic chamber. The Minimum Inhibitory Concentration (MIC) was read visually. The MIC is defined as the lowest concentration at which there is no detectable growth. The Minimum Bactericidal Concentration (MBC) was determined by taking 50 μl aliquot from each well and placing it in fresh medium. […] The strains of Bacteroides fragilis utilized in the above procedure are identified by letter in accordance with the following legend: |C B. fragilis NCTC 9344

[1] = test system: B. fragilis MZ-R ATCC 11295; test: MIC/MBC against Bacteroides fragilis strain D; assay type: cell-based; details: for MBC: ATCC11295, 99.9% reduction in viable count; for MIC: ATCC11295, 48 h, 48 hours, 37° C., anaerobic
Experimental: The screening panel utilized in this Example consisted of 5 strains of Bacteroides fragilis. All assays were carried out in 96-well microtitre plates. If an isolate was obtained from either a culture collection or clinical source, the isolate was immediately inoculated into Wilkens-Chalgren broth (Oxoid) and incubated at 37° C. in an anaerobic chamber in an atmosphere of 85% nitrogen, 10% carbon dioxide, and 5% hydrogen for 48 hours. At the end of this time, the viable count was about 10^12 organisms/ml broth. A 1 ml aliquot of each culture was placed in an ampoule and quick frozen in acetone-dry ice mixture and stored in liquid nitrogen. When an inoculum was utilized in an assay, one of the ampoules was thawed and diluted with fresh broth to yield a suspension having a count of 5×10^5 organisms/ml. A 100 μl aliquot of this suspension was inoculated into each well of the microtitre plate. A 2 mg sample of the test compound was dissolved in 0.2 ml of a suitable solvent such as dimethylsulfoxide, polyethylene glycol 200 or methanol. […] After addition of the test solution the final inoculum level was 10^5 cells/ml. The plates were incubated for 48 hours at 37° C. in the anaerobic chamber. The Minimum Inhibitory Concentration (MIC) was read visually. The MIC is defined as the lowest concentration at which there is no detectable growth. The Minimum Bactericidal Concentration (MBC) was determined by taking 50 μl aliquot from each well and placing it in fresh medium.

[2] = test system: Clostridium perfringens NCTC 523; test: microbe, parasite or virus in culture; assay type: cell-based; details: Clostridium perfringens, NCTC523, Clostridium perfringens NCTC 523; procedures of Example 40
[3] = test system: Campylobacter fetus ss. jejuni ATCC 29428; test: MIC vs panel of anaerobes; assay type: cell-based; details: ATCC29428, procedures of Example 40
[4] = test system: B. melanogenicus ATCC 15032; test: MIC vs panel of anaerobes; assay type: cell-based; details: procedures of Example 40
P. anaerobius = test: MIC vs panel of anaerobes; assay type: cell-based; details: Peptostreptococcus anaerobius, procedures of Example 40
Peptococcous magnus = test: MIC vs panel of anaerobes; assay type: cell-based; details: procedures of Example 40
B. fragilis 23745 = details: Bacteroides fragilis, 23745, in Mus musculus, po, 48 h, log CFU/ml liver homogenate, test compound
[5] = read-out: DOSE GIVING 1 LOG REDUCTION (molar), p.o., after infection and twice daily for 2 days
[6] = read-out: DOSE GIVING 1 LOG REDUCTION, p.o., after infection and twice daily for 2 days

Row | Compound | MBC (B. fragilis NCTC 9344) | MIC (B. fragilis NCTC 9344) | MBC [1] | MIC [1] | MIC [2] | MIC [3] | MIC [4] | MIC (P. anaerobius) | MIC (Peptococcous magnus) | ED (1 log reduction) (B. fragilis 23745; [5]) | ED (1 log reduction) (B. fragilis 23745; [6])
1 | [O-][N+]1=C(c2ccccc2)C2=NCC3(CCCCC3)CN2c2ccncc21 [Example 30, Spiro[cyclohexane-1,2'-[2,3]-dihydro-[5]-phenyl-[1H]pyrimido[1,2-a]pyrido[3,4-e]pyrazine [6]-oxide]] | < 0.8 µg/mL | < 0.8 µg/mL | < 0.8 µg/mL | < 0.8 µg/mL | 6.2 µg/mL (≈ 17.9 µM) | 100 µg/mL (≈ 289 µM) | > 100 µg/mL | 100 µg/mL (≈ 289 µM) |  |  | 
2 | CCC1(CC)CN=C2C(c3ccccc3)=[N+]([O-])c3cnccc3N2C1 [Example 25, 2,3-Dihydro-2,2-diethyl-5-phenyl-1H-pyrimido[1,2-a]pyrido[3,4-e]pyrazine 6-oxide] | 1.5 µg/mL (≈ 4.49 µM) | 1.5 µg/mL (≈ 4.49 µM) | 1.5 µg/mL (≈ 4.49 µM) | 1.5 µg/mL (≈ 4.49 µM) | 3.1 µg/mL (≈ 9.27 µM) | 100 µg/mL (≈ 299 µM) | > 100 µg/mL | 100 µg/mL (≈ 299 µM) | 100 µg/mL (≈ 299 µM) | 5.75 µmol/kg | 1.9 mg/kg
3 | CC1(C)CN=C2C(c3ccc(F)cc3)=[N+]([O-])c3cccnc3N2C1 [Example 31, 2,3-Dihydro-2,2-dimethyl-5-(4-fluorophenyl)-1H-pyrimido[1,2-a]pyrido[3,2-e]pyrazine 6-oxide] | < 0.8 µg/mL | < 0.8 µg/mL | < 0.8 µg/mL | < 0.8 µg/mL | 3.1 µg/mL (≈ 9.56 µM) | 100 µg/mL (≈ 308 µM) | > 100 µg/mL | 100 µg/mL (≈ 308 µM) |  | 3 µmol/kg | 1 mg/kg
4 | CCC1(C)CN=C2C(c3ccccc3)=[N+]([O-])c3cnccc3N2C1 (stereo not shown) [Example 23, 2,3-Dihydro-2-ethyl-2-methyl-5-phenyl-1H-pyrimido[1,2-a]pyrido[3,4-e]pyrazine 6-oxide] | < 0.8 µg/mL | < 0.8 µg/mL | < 0.8 µg/mL | < 0.8 µg/mL | 1.5 µg/mL (≈ 4.68 µM) | 100 µg/mL (≈ 312 µM) | > 100 µg/mL | 100 µg/mL (≈ 312 µM) |  | 6 µmol/kg | 1.9 mg/kg
5 | CCC1(CC)CN=C2C(c3ccccc3)=[N+]([O-])c3cccnc3N2C1 [Example 26, 2,3-Dihydro-2,2-diethyl-5-phenyl-1H-pyrimido[1,2-a]pyrido[3,2-e]pyrazine 6-oxide] | < 0.8 µg/mL | < 0.8 µg/mL | < 0.8 µg/mL | < 0.8 µg/mL | 1.5 µg/mL (≈ 4.49 µM) | 50 µg/mL (≈ 150 µM) | 100 µg/mL (≈ 299 µM) | 50 µg/mL (≈ 150 µM) | 12.5 µg/mL (≈ 37.4 µM) | 10.1 µmol/kg | 3.4 mg/kg
6 | CCC1(C)CN=C2C(c3ccccc3)=[N+]([O-])c3cccnc3N2C1 (stereo not shown) [Example 24, 2,3-Dihydro-2-ethyl-2-methyl-5-phenyl-1H-pyrimido[1,2-a]pyrido[3,2-e]pyrazine 6-oxide] | < 0.8 µg/mL | < 0.8 µg/mL | < 0.8 µg/mL | < 0.8 µg/mL | 1.5 µg/mL (≈ 4.68 µM) | 50 µg/mL (≈ 156 µM) | 100 µg/mL (≈ 312 µM) | 100 µg/mL (≈ 312 µM) |  | 6.8 µmol/kg | 2.2 mg/kg
7 | CC1CN=C2C(c3ccccc3)=[N+]([O-])c3cccnc3N2C1 (stereo not shown) [Example 32, 2,3-Dihydro-2-methyl-5-phenyl-1H-pyrimido[1,2-a]pyrido[3,2-e]pyrazine 6-oxide] | < 0.8 µg/mL | < 0.8 µg/mL | < 0.8 µg/mL | < 0.8 µg/mL | < 0.8 µg/mL |  |  |  | < 0.8 µg/mL | 3.3 µmol/kg | 0.95 mg/kg
8 | CC1CN=C2C(c3ccccc3)=[N+]([O-])c3cnccc3N2C1 (stereo not shown) [Example 34, 2,3-Dihydro-2-methyl-5-phenyl-1H-pyrimido[1,2-a]pyrido[3,4-e]pyrazine 6-oxide] | < 0.8 µg/mL | < 0.8 µg/mL | < 0.8 µg/mL | < 0.8 µg/mL |  |  |  |  |  | 9.3 µmol/kg | 2.7 mg/kg
9 | Cc1ccc(C2=[N+]([O-])c3cnccc3N3CC(C)(C)CN=C23)cc1 [Example 19, 2,3-Dihydro-2,2-dimethyl-5-(4-methylphenyl)-1H-pyrimido[1,2-a]pyrido[3,4-e]pyrazine 6-oxide] | < 0.8 µg/mL | < 0.8 µg/mL | 1.5 µg/mL (≈ 4.68 µM) | 1.5 µg/mL (≈ 4.68 µM) | 1.5 µg/mL (≈ 4.68 µM) |  |  |  | < 0.8 µg/mL | 4.6 µmol/kg | 1.5 mg/kg
10 | CC1(C)CN=C2C(c3ccc(F)cc3)=[N+]([O-])c3cnccc3N2C1 [Example 33, 2,3-Dihydro-2,2-dimethyl-5-(4-fluorophenyl)-1H-pyrimido[1,2-a]pyrido[3,4-e]pyrazine 6-oxide] | < 0.8 µg/mL | < 0.8 µg/mL | < 0.8 µg/mL | < 0.8 µg/mL |  |  |  |  |  | 2.85 µmol/kg | 0.9 mg/kg
11 | CCCC1(C)CN=C2C(c3ccccc3)=[N+]([O-])c3cnccc3N2C1 (stereo not shown) [Example 27, 2,3-Dihydro-2-methyl-5-phenyl-2-propyl-1H-pyrimido[1,2-a]pyrido[3,4-e]pyrazine 6-oxide] | < 0.8 µg/mL | < 0.8 µg/mL | 1.5 µg/mL (≈ 4.49 µM) | 1.5 µg/mL (≈ 4.49 µM) |  |  |  |  |  | 7.4 µmol/kg | 2.5 mg/kg
12 | CCCC1(C)CN=C2C(c3ccccc3)=[N+]([O-])c3cccnc3N2C1 (stereo not shown) [Example 28, 2,3-Dihydro-2-methyl-5-phenyl-2-propyl-1H-pyrimido[1,2-a]pyrido[3,2-e]pyrazine 6-oxide] | < 0.8 µg/mL | < 0.8 µg/mL | < 0.8 µg/mL | < 0.8 µg/mL |  |  |  |  |  | 7.4 µmol/kg | 2.5 mg/kg
13 | COc1ccc(C2=[N+]([O-])c3cnccc3N3CC(C)(C)CN=C23)cc1OC [Example 21] | 1.5 µg/mL (≈ 4.09 µM) | < 0.8 µg/mL | < 0.8 µg/mL | < 0.8 µg/mL |  |  |  |  |  | 6.8 µmol/kg | 2.5 mg/kg

Source: patent publication US4761414A, “Substituted 1H-pyrimido[1,2-a-]-pyrido[3,4-e]pyrazine 6 oxides” (G. D. Searle & Co., priority 1986, dated 1988)
